The values that follow come from ChEMBL document CHEMBL1201862, “PubChem BioAssay data set” (2004).

Among the test systems are 786-0; A549; CAKI-1; COLO 205; EKVX; HCT-116; HT-29; KM12; LOX IMVI; MOLT-4; OVCAR-3; OVCAR-8; SF-268; MDA-MB-231; MDA-MB-435; NCI-H23; SK-OV-3; U-251; UACC-62.
Test in all cases: NCI-60 cell line screen, 48 h

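96-well plates; 48 h exposure; 5 concentrations. Endpoints by linear interpolation between flanking doses. Not reached: highest tested concentration assigned. Here, GI50 denotes the concentration required for 50% inhibition of growth.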 The source made the active and inactive calls. No stated cut-off is given here; in the data, active = GI50 up to about 1.1 µM and inactive = higher.

Turning to `C/C(=N/N)c1ccc2[nH]c3c(C)cc([N+](=O)[O-])c(C)c3c2c1`, the GI50 with 786-0 was 4.6 µM (inactive); with A549, 11.1 µM (inactive); in the assay on CAKI-1, > 10 µM (inactive); with COLO 205, 11.5 µM (inactive); in the assay on EKVX, 22.2 µM (inactive); in the assay with HCT-116, 4.09 µM (inactive). Further, the GI50 in the assay on HT-29 is 8.2 µM (inactive); in the assay with KM12 it was > 10 µM (inactive); in the assay with LOX IMVI it was 4.99 µM (inactive); in the assay with MOLT-4, 2.79 µM (inactive); with OVCAR-3, 14.9 µM (inactive); with OVCAR-8 it was 5.3 µM (inactive). In the assay with SF-268, the GI50 was 8.22 µM (inactive).
As for `O=C(c1ccc(Cl)c(Cl)c1)N(C(=S)OC12CC3CC(CC(C3)C1)C2)c1ccccc1`, the GI50 was 30.3 µM (inactive) in the assay with 786-0; 32.2 µM (inactive) in the assay on A549; 29.9 µM (inactive) with CAKI-1; 15.9 µM (inactive) in the assay on COLO 205; 20.8 µM (inactive) in the assay on EKVX; 24.8 µM (inactive) in the assay with HCT-116. In addition, the GI50 was 29.6 µM (inactive) in the assay on HT-29; 33.7 µM (inactive) in the assay on KM12; 38.3 µM (inactive) in the assay with MDA-MB-231; 30.2 µM (inactive) with MDA-MB-435; 28.9 µM (inactive) in the assay on NCI-H23; 39.4 µM (inactive) in the assay on OVCAR-3. Also, the GI50 in the assay on OVCAR-8 is 41.5 µM (inactive); in the assay with SF-268 it was 40.4 µM (inactive); in the assay with SK-OV-3, 36.6 µM (inactive); in the assay with U-251, 34.6 µM (inactive); in the assay on UACC-62, 25.1 µM (inactive).
As to `CC(=O)OCCCCN1C(=O)CSc2ccccc21`, the GI50 in the assay on 786-0 was > 10 µM (inactive); in the assay with A549, > 100 µM (inactive); with CAKI-1, > 100 µM (inactive); in the assay on EKVX, > 100 µM (inactive); with HCT-116, > 100 µM (inactive); with KM12 it was > 100 µM (inactive). Moreover, the GI50 in the assay with LOX IMVI, in the assay on MDA-MB-435, in the assay on MOLT-4, in the assay with OVCAR-3, with SK-OV-3 and in the assay with U-251 was > 100 µM (inactive) throughout. Also, in the assay on UACC-62, the GI50 is > 100 µM (inactive).
Regarding `CCN(CCO)CC1CCCC2CCCCC21` (stereo not given), the GI50 in the assay with 786-0, with A549, in the assay on CAKI-1, in the assay with COLO 205, in the assay with EKVX and in the assay with HCT-116 was > 100 µM (inactive) in each case. Further, the GI50 in the assay on HT-29, in the assay on KM12, in the assay with MDA-MB-231, with MDA-MB-435, with NCI-H23 and in the assay with OVCAR-3 was > 100 µM (inactive) in each case. Moreover, the GI50 in the assay on OVCAR-8, in the assay with SF-268, in the assay with SK-OV-3, with U-251 and in the assay with UACC-62 was > 100 µM (inactive) in each case.
As for `COc1ccccc1/C=C/C(=O)c1sc(-c2cccnc2)nc1C`, the GI50 with 786-0, in the assay with A549, in the assay on CAKI-1, in the assay with COLO 205, with EKVX and in the assay on HT-29 was > 100 µM (inactive) each time. The GI50 was 65.2 µM (inactive) in the assay on KM12; > 100 µM (inactive) in the assay on LOX IMVI; 61.7 µM (inactive) with MOLT-4; > 100 µM (inactive) with NCI-H23; > 100 µM (inactive) with OVCAR-3; > 100 µM (inactive) in the assay with OVCAR-8. Further, the GI50 in the assay with SF-268, in the assay with SK-OV-3, in the assay with U-251 and with UACC-62 was > 100 µM (inactive) in each case.
`O=C1CCCC2COc3ccc(O)c1c32` (stereo not given): the GI50 in the assay with 786-0, in the assay on A549, in the assay on COLO 205, in the assay with EKVX, with HT-29 and in the assay with KM12 was > 100 µM (inactive) in each case. In addition, the GI50 in the assay with MOLT-4, with NCI-H23, with OVCAR-3, in the assay with OVCAR-8, in the assay on SF-268 and in the assay on SK-OV-3 was > 100 µM (inactive) throughout. For the same compound, the GI50 with U-251 and with UACC-62 was > 100 µM (inactive) throughout.
As for `C=C1C(O)C2(O)OCC34C(CC5C(C)=CC(=O)C(O)C5(C)C23)OC(=O)C(OC(=O)C/C=C(\C)CCCCC)C14` (stereo not given), the GI50 is 0.00103 µM (active) with 786-0; 0.017 µM (active) with A549; 0.0427 µM (active) in the assay with CAKI-1; 0.0154 µM (active) with COLO 205; 0.0198 µM (active) with EKVX; 0.0125 µM (active) in the assay on HCT-116. The GI50 in the assay on HT-29 was 0.0141 µM (active); with KM12 it was 0.0129 µM (active); in the assay on MDA-MB-231, 0.00315 µM (active); in the assay on MDA-MB-435 it was < 0.001 µM (active); with MOLT-4, 0.0125 µM (active); in the assay on NCI-H23, 0.0147 µM (active). In addition, the GI50 in the assay with OVCAR-8 was 0.0125 µM (active); in the assay on SF-268, 0.0152 µM (active); in the assay on SK-OV-3 it was 0.0133 µM (active); with U-251, 0.0125 µM (active); in the assay on UACC-62, 0.0147 µM (active).
As for `c1ccc(CN2CCC(Nc3ccccc3)(c3nnnn3Cc3ccccc3)CC2)cc1`, the GI50 in the assay with 786-0 was 22.4 µM (inactive); in the assay with A549 it was 32.2 µM (inactive); with COLO 205, 11.6 µM (inactive); in the assay with EKVX, 23.8 µM (inactive); in the assay on HCT-116, 20.1 µM (inactive); with HT-29, 11.6 µM (inactive). The GI50 is 13.3 µM (inactive) in the assay on KM12; 20.1 µM (inactive) in the assay on LOX IMVI; 27.2 µM (inactive) in the assay on MDA-MB-231; 32.9 µM (inactive) in the assay with MDA-MB-435; 10.1 µM (inactive) in the assay with MOLT-4; 50 µM (inactive) in the assay with NCI-H23. For the same compound, the GI50 with OVCAR-8 was 32.8 µM (inactive); in the assay with SF-268 it was > 100 µM (inactive); with SK-OV-3 it was 70.1 µM (inactive); in the assay with U-251, 22.6 µM (inactive); in the assay with UACC-62 it was 23.6 µM (inactive).
Consider `C[N+](C)(C)CC(=O)N/N=C(/Cc1nc2ccc([N+](=O)[O-])cc2nc1O)C(=O)Nc1cc(C(F)(F)F)ccc1Cl`, for which the GI50 in the assay with 786-0 was > 100 µM (inactive); in the assay with A549, > 100 µM (inactive); in the assay on CAKI-1, > 100 µM (inactive); with COLO 205, > 100 µM (inactive); in the assay on EKVX it was 76 µM (inactive); with HCT-116, > 100 µM (inactive). Also, the GI50 with HT-29, in the assay on KM12, with MOLT-4, with NCI-H23, with OVCAR-3 and in the assay on OVCAR-8 was > 100 µM (inactive) in each case. Also, the GI50 in the assay with SF-268 is > 100 µM (inactive); in the assay with SK-OV-3, > 100 µM (inactive); in the assay on UACC-62, 94.2 µM (inactive).
With `O=C(CC(=O)N1N=C(N(c2ccccc2)c2ccccc2)CC1c1ccccc1)Nc1ccc(Cl)cc1` (stereo not given), the GI50 in the assay with 786-0, with A549, in the assay with CAKI-1, in the assay with COLO 205, in the assay on EKVX and in the assay with HCT-116 was > 100 µM (inactive) each time. The GI50 with HT-29, with KM12, with MDA-MB-231, with MDA-MB-435, with MOLT-4 and in the assay with NCI-H23 was > 100 µM (inactive) each time. Moreover, the GI50 with OVCAR-3, in the assay with OVCAR-8, in the assay on SF-268, with SK-OV-3, in the assay on U-251 and in the assay with UACC-62 was > 100 µM (inactive) throughout.
`COc1cc(/C=C2/SC(c3ccccc3)N(c3cccc(NC(C)=O)c3)C2=O)cc(OC)c1OC` (stereo not given): the GI50 in the assay with 786-0 was 81.8 µM (inactive); in the assay on A549, 47.4 µM (inactive); in the assay on CAKI-1, > 100 µM (inactive); in the assay on COLO 205, 41.9 µM (inactive); in the assay with EKVX, 50.7 µM (inactive); in the assay with HCT-116 it was 30.2 µM (inactive). Also, the GI50 was 38.6 µM (inactive) in the assay on HT-29; 39.1 µM (inactive) with KM12; 40.3 µM (inactive) with LOX IMVI; 35 µM (inactive) with MDA-MB-435; 31.3 µM (inactive) in the assay on MOLT-4; 44.9 µM (inactive) with NCI-H23. Further, the GI50 is 60.1 µM (inactive) in the assay on OVCAR-3; 52.6 µM (inactive) in the assay on OVCAR-8; 67.9 µM (inactive) in the assay with SF-268; 75 µM (inactive) in the assay with SK-OV-3; 50.5 µM (inactive) with UACC-62.
Take `C=C1C(=O)[C@@]23CC[C@@H]4[C@@]5(C)CCC[C@@]4(OC5=O)C2(C)CC[C@]1(OC)C3` (stereo not given in full): the GI50 in the assay on 786-0 was 0.279 µM (active); in the assay with A549, 3.27 µM (inactive); in the assay on CAKI-1, 1.75 µM (inactive); in the assay on COLO 205, 2.38 µM (inactive); with EKVX, 9.18 µM (inactive); in the assay on HCT-116 it was 0.423 µM (active). Further, the GI50 was 0.36 µM (active) in the assay on HT-29; 2.32 µM (inactive) in the assay on KM12; 0.232 µM (active) with LOX IMVI; 1.32 µM (inactive) in the assay on MDA-MB-435; 0.238 µM (active) with MOLT-4; 1.45 µM (inactive) with NCI-H23. Also, the GI50 is 1.01 µM (active) in the assay with OVCAR-3, 0.611 µM (active) in the assay on OVCAR-8, 2.14 µM (inactive) in the assay with SF-268 and 1.35 µM (inactive) in the assay with UACC-62.
